ChEMBL document CHEMBL1201862, “PubChem BioAssay data set” (2004)
Activity calls are given as the source filed them. Cut-off read from the data, not from the text of the source, for most assays here: actives have a measured EC50 and inactives only a lower limit.

What was measured:
[1] = NIH-3T3 fibroblast cytotoxicity, dose response, cytotoxicity control, cell-based, fluorescence, Alamar Blue, secondary assay (AID 2327); assay type: functional;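 note: NIH-3T3 mouse fibroblasts cultured with fluconazole at 8 µg/mL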
cells [2] = assay type: functional, cell-based
[3] = fluconazole-exposed Candida albicans growth modulators – fluorescence, retest, confirmation (AID 2467); assay type: functional, cell-based
cells [4] = assay type: functional, cell-based; remark: listed apart in the source
[5] = Luminescence Cell-Based Dose Confirmation HTS to Identify Activators of 5'UTR Stem-Loop Driven Alpha-Synuclein mRNA Translation in H4 Neuroglioblastoma Cells. [Related pubchem assays: 1829 (Project Summary), 1814 (Primary HTS)]; assay type: functional
[6] = Luminescence Cell-Based Dose Response HTS to Identify Activators of Luciferase Translation or Activity in H4 […] Cells. [Related pubchem assays: 1829 (Project Summary), 1814 (Primary HTS)]; assay type: functional
H4 = test: Luminescence Cell-Based Dose Response HTS to Identify Activators of 5'UTR Stem-Loop Driven Prion Protein mRNA Translation in H4 Neuroglioblastoma Cells. [Related pubchem assays: 1829 (Project Summary), 1814 (Primary HTS)]; assay type: functional; settings: Homo sapiens
[7] = molecular target: T1, Rac GTPase-activating protein 1 (Homo sapiens, UniProt Q9H0H5); test: blockers of MgcRacGAP-driven Rac1 GTP hydrolysis – biochemical, ADP Hunter fluorescence, primary and confirmatory, confirmation (AID 624330); assay type: functional
T1 sequence (Q9H0H5 whole entry): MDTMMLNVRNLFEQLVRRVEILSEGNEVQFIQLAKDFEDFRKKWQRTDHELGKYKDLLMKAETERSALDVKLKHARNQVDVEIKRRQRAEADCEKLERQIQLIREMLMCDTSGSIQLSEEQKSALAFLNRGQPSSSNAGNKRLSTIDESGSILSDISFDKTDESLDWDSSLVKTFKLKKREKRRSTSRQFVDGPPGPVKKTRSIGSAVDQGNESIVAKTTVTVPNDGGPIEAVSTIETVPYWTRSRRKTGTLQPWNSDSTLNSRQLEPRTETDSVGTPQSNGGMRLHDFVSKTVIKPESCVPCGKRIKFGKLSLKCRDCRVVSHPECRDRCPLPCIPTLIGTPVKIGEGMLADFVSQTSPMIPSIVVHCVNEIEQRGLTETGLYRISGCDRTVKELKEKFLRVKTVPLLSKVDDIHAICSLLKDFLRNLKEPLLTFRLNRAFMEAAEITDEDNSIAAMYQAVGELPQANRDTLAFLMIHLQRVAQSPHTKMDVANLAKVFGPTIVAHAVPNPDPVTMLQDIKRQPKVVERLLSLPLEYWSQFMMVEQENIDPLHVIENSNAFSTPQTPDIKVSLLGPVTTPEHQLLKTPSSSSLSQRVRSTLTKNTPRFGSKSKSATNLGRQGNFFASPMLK

[8] = molecular target: Induced myeloid leukemia cell differentiation protein Mcl-1 (Homo sapiens, UniProt Q07820); assay type: functional
Induced myeloid leukemia cell differentiation protein Mcl-1, sequence (Q07820 whole entry, the tested form may be a part): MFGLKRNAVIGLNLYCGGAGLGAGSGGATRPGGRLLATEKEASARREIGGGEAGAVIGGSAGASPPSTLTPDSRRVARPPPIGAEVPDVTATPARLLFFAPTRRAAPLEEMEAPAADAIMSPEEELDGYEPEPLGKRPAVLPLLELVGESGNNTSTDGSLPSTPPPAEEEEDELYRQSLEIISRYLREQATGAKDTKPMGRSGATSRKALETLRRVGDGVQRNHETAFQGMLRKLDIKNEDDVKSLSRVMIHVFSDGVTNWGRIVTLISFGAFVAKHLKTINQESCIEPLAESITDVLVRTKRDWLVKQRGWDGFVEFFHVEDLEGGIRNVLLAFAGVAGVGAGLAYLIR

[9] = molecular target: T2, RNA-binding protein pos-1 (Caenorhabditis elegans, UniProt G5EF15); test: disruptors of C. elegans POS-1 RNA interaction – biochemical, fluorescence polarization, dose response (AID 1964);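 note: purified POS-1 fused to maltose binding protein made in E. coli; potency of compounds blocking POS-1 binding to fluorescent RNA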
T2 sequence (G5EF15 whole entry): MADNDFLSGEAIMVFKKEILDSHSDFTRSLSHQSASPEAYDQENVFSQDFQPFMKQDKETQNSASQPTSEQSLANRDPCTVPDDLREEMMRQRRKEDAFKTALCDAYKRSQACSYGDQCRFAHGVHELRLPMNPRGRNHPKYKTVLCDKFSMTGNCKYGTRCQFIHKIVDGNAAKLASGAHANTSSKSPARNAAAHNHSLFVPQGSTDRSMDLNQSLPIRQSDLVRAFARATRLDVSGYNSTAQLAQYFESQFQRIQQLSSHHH

[10] = molecular target: T3, Zinc finger protein mex-5 (Caenorhabditis elegans, UniProt Q9XUB2); test: potency of MEX-5 RNA-binding blockers – biochemical, C. elegans, fluorescence polarization, dose response (AID 1960)
T3 sequence (Q9XUB2 whole entry): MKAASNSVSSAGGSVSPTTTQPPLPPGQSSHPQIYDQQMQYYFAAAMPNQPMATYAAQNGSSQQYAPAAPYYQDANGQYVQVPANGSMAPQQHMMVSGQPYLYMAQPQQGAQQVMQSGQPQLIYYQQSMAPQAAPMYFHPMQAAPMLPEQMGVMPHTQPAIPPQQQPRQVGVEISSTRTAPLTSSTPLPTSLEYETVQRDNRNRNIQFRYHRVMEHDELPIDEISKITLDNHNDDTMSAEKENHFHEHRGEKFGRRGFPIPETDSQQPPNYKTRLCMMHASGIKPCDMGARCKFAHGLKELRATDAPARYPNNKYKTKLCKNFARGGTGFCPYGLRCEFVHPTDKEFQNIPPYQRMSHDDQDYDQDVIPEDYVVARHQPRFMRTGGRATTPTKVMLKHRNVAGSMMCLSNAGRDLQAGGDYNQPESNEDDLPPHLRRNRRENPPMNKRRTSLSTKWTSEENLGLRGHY

[11] = molecular target: T4, Replicative DNA helicase DnaB (Mycobacterium tuberculosis, UniProt P9WMR3); test: DnaB intein splicing inhibitors, dose response, biochemical, cell-free fluorescence (AID 449749); assay type: functional
T4 sequence (P9WMR3 whole entry): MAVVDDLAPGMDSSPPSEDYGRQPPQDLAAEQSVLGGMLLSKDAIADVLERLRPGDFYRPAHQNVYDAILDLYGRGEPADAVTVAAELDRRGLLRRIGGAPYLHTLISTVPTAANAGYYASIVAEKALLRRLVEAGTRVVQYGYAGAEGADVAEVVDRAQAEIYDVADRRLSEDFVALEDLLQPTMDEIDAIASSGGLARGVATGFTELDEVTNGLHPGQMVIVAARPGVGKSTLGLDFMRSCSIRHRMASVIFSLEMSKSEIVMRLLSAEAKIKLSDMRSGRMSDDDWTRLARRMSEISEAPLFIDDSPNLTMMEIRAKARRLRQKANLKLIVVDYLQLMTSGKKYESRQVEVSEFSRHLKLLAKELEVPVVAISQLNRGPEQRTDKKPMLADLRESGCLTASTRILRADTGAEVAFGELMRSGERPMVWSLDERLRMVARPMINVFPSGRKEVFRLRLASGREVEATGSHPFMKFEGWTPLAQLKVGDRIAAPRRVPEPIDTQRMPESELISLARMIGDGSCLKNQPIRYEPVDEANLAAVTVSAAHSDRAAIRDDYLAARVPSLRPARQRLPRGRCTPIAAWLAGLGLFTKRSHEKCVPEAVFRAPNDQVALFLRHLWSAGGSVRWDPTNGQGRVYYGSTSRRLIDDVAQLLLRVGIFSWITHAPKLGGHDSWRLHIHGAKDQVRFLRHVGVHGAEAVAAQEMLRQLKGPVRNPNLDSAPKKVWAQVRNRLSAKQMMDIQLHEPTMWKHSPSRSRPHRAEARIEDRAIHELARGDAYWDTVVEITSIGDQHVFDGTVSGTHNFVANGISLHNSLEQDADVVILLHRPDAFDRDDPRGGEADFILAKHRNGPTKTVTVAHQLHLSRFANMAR

Protein RecA = molecular target: T5, Protein RecA (Mycobacterium tuberculosis, UniProt P9WHJ3); test: Fluorescence Cell-Free Homogeneous Dose Retest to Identify Inhibitors of RecA-Intein Splicing Activity. [Related pubchem assays (depositor defined):AID2097, AID2223, AID489010, AID492950]; assay type: functional
T5 sequence (P9WHJ3 whole entry): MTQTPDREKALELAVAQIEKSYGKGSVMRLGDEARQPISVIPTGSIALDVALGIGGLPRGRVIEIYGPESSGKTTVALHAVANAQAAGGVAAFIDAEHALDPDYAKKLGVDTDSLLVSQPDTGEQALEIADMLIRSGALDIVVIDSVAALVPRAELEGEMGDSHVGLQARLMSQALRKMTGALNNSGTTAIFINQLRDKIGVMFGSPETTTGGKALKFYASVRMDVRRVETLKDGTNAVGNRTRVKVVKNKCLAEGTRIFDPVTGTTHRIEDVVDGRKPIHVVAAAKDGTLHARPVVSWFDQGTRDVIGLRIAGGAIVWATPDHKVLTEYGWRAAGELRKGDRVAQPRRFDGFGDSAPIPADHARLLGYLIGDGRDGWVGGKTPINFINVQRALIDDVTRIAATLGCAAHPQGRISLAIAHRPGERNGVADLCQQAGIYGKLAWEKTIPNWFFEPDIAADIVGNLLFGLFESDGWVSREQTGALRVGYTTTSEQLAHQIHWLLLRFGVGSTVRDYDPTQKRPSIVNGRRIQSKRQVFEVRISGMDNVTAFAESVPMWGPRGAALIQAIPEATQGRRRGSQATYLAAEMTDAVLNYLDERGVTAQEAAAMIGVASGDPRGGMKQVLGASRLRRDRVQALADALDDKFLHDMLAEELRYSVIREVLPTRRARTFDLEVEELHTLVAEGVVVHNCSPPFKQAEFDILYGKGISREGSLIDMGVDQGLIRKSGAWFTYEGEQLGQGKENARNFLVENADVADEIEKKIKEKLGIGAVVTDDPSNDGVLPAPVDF

[12] = molecular target: T6, Polyadenylate-binding protein 1 (Homo sapiens, UniProt P11940); test: MLLE binding blockers, Cy5 peptide tracer – biochemical, fluorescence polarization, Cy5-PAM2 peptide, secondary, miRNA deadenylation inhibitor project, dose response (AID 602260); assay type: functional; settings: read-out: IC50_Mean
T6 sequence (P11940 whole entry, the tested form may be a part): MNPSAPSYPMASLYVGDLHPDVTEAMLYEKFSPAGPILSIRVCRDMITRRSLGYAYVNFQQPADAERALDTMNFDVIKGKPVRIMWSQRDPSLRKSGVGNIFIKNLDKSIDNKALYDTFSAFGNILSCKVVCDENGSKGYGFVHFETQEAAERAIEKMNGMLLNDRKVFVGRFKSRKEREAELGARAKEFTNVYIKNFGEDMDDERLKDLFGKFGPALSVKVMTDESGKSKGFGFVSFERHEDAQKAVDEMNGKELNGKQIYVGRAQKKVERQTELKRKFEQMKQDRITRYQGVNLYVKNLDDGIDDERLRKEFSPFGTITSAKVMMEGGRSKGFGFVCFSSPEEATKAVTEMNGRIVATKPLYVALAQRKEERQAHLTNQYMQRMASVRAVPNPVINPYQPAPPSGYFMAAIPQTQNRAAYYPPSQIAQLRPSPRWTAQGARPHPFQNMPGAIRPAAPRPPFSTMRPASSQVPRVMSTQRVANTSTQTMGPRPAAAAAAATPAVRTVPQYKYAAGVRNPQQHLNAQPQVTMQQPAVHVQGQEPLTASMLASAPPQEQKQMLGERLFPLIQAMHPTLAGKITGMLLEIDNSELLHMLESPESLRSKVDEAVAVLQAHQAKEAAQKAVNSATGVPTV

[13] = molecular target: T6, Polyadenylate-binding protein 1; test: MLLE domain peptide-binding blockers, IC50 – biochemical, fluorescence polarization, FITC-PAM2 peptide, dose response (AID 602259); assay type: functional; settings: read-out: IC50_Mean
Protein skinhead-1 = molecular target: T7, Protein skinhead-1 (Caenorhabditis elegans, UniProt P34707); assay type: functional
T7 sequence (P34707 whole entry): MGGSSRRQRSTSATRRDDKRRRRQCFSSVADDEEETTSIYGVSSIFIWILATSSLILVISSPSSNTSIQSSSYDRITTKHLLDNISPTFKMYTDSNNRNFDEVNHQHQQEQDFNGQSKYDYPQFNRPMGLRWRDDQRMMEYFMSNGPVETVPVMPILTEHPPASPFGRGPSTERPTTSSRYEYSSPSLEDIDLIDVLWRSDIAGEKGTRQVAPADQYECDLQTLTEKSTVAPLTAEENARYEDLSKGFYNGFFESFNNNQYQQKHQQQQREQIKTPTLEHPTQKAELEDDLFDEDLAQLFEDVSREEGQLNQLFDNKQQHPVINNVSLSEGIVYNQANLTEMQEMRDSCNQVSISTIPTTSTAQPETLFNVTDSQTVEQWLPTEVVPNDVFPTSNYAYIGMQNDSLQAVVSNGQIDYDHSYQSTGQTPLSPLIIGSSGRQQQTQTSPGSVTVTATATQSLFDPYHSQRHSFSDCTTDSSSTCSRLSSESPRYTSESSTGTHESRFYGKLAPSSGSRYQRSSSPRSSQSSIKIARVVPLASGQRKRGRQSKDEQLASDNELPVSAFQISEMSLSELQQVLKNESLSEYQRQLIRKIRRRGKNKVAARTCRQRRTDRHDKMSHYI

[14] = molecular target: T8, Ubiquitin-conjugating enzyme E2 N (Homo sapiens, UniProt P61088); assay type: functional;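 note: Dose-response confirmation in a TR-FRET assay detecting UBC13-driven polyubiquitin chain formation, inhibition measured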
T8 sequence (P61088 whole entry): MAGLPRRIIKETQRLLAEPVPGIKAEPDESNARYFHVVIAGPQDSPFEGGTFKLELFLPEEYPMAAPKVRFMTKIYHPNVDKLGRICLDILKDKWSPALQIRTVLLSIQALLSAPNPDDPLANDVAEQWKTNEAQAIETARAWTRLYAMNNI

Large T antigen = Large T antigen (Simian virus 40, UniProt P03070); assay type: functional, Betapolyomavirus macacae;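 note: Confirmatory-stage PubChem screen for compounds that inhibit SV40 T antigen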
Large T antigen, sequence (P03070 whole entry): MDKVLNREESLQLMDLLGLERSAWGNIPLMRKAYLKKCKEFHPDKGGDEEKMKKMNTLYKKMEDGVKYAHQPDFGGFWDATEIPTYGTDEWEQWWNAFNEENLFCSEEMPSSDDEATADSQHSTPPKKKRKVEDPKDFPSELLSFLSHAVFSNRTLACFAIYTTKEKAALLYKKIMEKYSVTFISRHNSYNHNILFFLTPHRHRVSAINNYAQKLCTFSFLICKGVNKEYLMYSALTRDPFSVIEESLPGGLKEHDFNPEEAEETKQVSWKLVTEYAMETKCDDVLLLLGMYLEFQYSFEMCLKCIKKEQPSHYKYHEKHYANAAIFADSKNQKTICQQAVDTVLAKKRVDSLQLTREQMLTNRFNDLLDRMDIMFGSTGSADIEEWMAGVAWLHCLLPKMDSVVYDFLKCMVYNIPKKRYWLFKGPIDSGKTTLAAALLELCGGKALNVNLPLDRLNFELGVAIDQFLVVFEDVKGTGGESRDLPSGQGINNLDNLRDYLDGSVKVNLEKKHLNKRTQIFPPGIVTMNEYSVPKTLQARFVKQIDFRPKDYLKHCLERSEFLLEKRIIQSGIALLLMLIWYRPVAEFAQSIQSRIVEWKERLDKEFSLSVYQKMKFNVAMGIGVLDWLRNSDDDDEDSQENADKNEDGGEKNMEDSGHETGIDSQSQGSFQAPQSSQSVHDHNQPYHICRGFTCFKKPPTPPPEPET

## Oc1ccc(CN2CCC(Cc3ccccc3)CC2)c2cccnc12
[1]
  EC50: 22.3 µM (active)
Cells [2]
  EC50: 6.9 µM (active)
[3]
  EC50: 1.99 µM (active)
Cells [4]
  EC50: > 350 µM (not active)

## Cc1ccc2[nH]c(N3CCN(C)CC3)nc2c1
[5]
  EC50: 3.62 µM (active)
[6]
  EC50: 18.7 µM (active)
Cells [2]
  EC50: > 350 µM (not active)
H4
  EC50: 20 µM (active)
Cells [4]
  EC50: > 350 µM (not active)

## CCN1CCN(c2ccc([N+](=O)[O-])cc2C=C2C(=O)NC(=O)NC2=O)CC1
Cells [2]
  EC50: > 350 µM (not active)
Cells [4]
  EC50: > 350 µM (not active)

## COc1ccccc1CNCC(=O)Nc1ccc(N(C)C)cc1
[7]
  IC50: 32.1 µM (active)

## CCN=c1ccc(Br)cc(C(=O)/C=C/c2ccc(Cl)cc2)c1O
[8]
  IC50: 3.55 µM (active)

## Cc1ccc(O)c(NC(=O)c2ccc3c(c2)C(=O)N(Cc2ccco2)C3=O)c1
Cells [2]
  EC50: > 350 µM (not active)
Cells [4]
  EC50: 52.2 µM (active)

## CCN1C(=O)/C(=C/c2ccc3c(c2)CCN3CCCCl)C(=O)NC1=S
[8]
  IC50: 3.4 µM (active)

## CCN(CC)C(=O)CSc1nnc2nnc3cc(Cl)ccc3n12
[9]
  EC50: 23.2 µM (active)
[10]
  EC50: 18.5 µM (active)
[11]
  AC50: > 380 µM (inactive)
Protein RecA
  EC50: 0.499 µM (active)
[12]
  IC50: > 66 µM (inactive)
[13]
  IC50: 34.4 µM (inactive)

## COc1cccc(N2CC(C(=O)Oc3ccc4ccccc4c3)CC2=O)c1 (configuration not stated)
[7]
  IC50: 16.1 µM (active)

## Cc1cc(NC(=O)CN2CCN(C)CC2)no1
[7]
  IC50: 157 µM (active)

## Cc1ccc(S(=O)(=O)Nc2nsc(N)n2)cc1
[7]
  IC50: 82.8 µM (active)

## C/C(=C\C(=O)OCC(=O)NCc1ccccc1)C(=O)OCC(=O)NCc1ccccc1
Cells [2]
  EC50: > 350 µM (not active)
Cells [4]
  EC50: > 350 µM (not active)

## CSCc1nc2sc(C(=O)Nc3nc(C)cs3)c(C)c2c(=O)[nH]1
[8]
  IC50: 3.89 µM (active)

## CCOC(=O)CN(C(=O)COc1nc(C)cc(C)c1C#N)c1cccc(Cl)c1
Cells [2]
  EC50: > 350 µM (not active)
Cells [4]
  EC50: > 350 µM (not active)

## Cc1cc2cc(CNC(=O)Cc3ccc([N+](=O)[O-])cc3)ccc2n1C
[12]
  IC50: > 66 µM (inactive)
[13]
  IC50: > 66 µM (inactive)
Protein skinhead-1
  IC50: > 100 µM (inactive)

## O=C1NC(=O)C(=Cc2cccs2)C(=O)N1
[7]
  IC50: 188 µM (active)

## O=C(N/N=C/c1ccccn1)c1cc(-c2ccccc2Cl)n[nH]1
[14]
  IC50: > 20 µM (inactive)

## O=C(N/N=C/c1ccc(O)c(O)c1)c1ccc(CSc2cccc3cccnc23)cc1
Large T antigen
  IC50: 5.43 µM (active)
[8]
  IC50: 4.61 µM (active)
